Laboratory results: publication PMC8834192 (2022)

Legend:
[1] = test system: Z0 (DNA, aptamer) CTACCAGCTTTGAGGCTCGATCCAGCTTATTCAATTATACCAGCTTATTCAATTATACCAGC; test: UV-Vis absorbance at 260 nm of released strand; settings: room temperature; partially complementary strand Z1 displaced from bead-bound Z0Z1
[2] = test system: Z0 (DNA, aptamer) CTACCAGCTTTGAGGCTCGATCCAGCTTATTCAATTATACCAGCTTATTCAATTATACCAGC; test: circular dichroism; settings: Z0Z1 partial duplex; Z1 (S3) displaced; buffer not stated

C[C@H]1CCCC(=O)CCC/C=C/c2cc(O)cc(O)c2C(=O)O1
binding [1]: yes
binding [2]: yes
